The target in assay [1] is human KDR protein in HEK-293 cells (Homo sapiens (Human), UniProt P35968). The experiment in a line: KDR Cell Assay (phospho-KDR in HEK-293 cells expressing inducible KDR). Format: cell-based. The note with it: pKDR Cell HEK 10% FBS IC50, HEK-293 cells expressing inducible KDR, VEGF stimulated, 10% FBS. In a few lines:
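HEK-293 cells with inducible human KDR were treated with compound for 1 h in DMEM (0.25% DMSO final), then lysed. Phospho-KDR was quantified by Meso Scale immunoassay, expressed as percent of control, and IC50 taken where a 4-parameter logistic fit crossed 50 POC.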

The target of assay [2] is N-terminal GST tagged recombinant human RET cytoplasmic domain (aa 658-end), wild type RET kinase (Homo sapiens (Human), UniProt P07949). The experiment in a line: RET Enzyme Assay (HTRF KinEASE-TK), wild type RET. In kind it is biochemical. The note with it: wild type RET, 1 mM ATP. For orientation: Time-resolved FRET reads energy transfer from a long-lived donor to a nearby acceptor.

Assay [3] deals with Kif5b-RET fusion protein in HEK-293 cells (Homo sapiens, UniProt P07949). The experiment in a line: cell-based. The note with it: HEK-293 cells expressing Kif5b-RET, phospho-RET(Tyr1062); read-out: KIF5B-RET pTYR1062 Cell IC50.

In patent US10023570B2 (Array BioPharma, Inc., priority 2015, dated 2018) one finds IC50 data, which are given here for 17 compounds.

Usually IC50 stands for the point on the concentration scale where inhibition reaches its midpoint.

human KDR protein in HEK-293 cells, sequence (P35968 20-1356): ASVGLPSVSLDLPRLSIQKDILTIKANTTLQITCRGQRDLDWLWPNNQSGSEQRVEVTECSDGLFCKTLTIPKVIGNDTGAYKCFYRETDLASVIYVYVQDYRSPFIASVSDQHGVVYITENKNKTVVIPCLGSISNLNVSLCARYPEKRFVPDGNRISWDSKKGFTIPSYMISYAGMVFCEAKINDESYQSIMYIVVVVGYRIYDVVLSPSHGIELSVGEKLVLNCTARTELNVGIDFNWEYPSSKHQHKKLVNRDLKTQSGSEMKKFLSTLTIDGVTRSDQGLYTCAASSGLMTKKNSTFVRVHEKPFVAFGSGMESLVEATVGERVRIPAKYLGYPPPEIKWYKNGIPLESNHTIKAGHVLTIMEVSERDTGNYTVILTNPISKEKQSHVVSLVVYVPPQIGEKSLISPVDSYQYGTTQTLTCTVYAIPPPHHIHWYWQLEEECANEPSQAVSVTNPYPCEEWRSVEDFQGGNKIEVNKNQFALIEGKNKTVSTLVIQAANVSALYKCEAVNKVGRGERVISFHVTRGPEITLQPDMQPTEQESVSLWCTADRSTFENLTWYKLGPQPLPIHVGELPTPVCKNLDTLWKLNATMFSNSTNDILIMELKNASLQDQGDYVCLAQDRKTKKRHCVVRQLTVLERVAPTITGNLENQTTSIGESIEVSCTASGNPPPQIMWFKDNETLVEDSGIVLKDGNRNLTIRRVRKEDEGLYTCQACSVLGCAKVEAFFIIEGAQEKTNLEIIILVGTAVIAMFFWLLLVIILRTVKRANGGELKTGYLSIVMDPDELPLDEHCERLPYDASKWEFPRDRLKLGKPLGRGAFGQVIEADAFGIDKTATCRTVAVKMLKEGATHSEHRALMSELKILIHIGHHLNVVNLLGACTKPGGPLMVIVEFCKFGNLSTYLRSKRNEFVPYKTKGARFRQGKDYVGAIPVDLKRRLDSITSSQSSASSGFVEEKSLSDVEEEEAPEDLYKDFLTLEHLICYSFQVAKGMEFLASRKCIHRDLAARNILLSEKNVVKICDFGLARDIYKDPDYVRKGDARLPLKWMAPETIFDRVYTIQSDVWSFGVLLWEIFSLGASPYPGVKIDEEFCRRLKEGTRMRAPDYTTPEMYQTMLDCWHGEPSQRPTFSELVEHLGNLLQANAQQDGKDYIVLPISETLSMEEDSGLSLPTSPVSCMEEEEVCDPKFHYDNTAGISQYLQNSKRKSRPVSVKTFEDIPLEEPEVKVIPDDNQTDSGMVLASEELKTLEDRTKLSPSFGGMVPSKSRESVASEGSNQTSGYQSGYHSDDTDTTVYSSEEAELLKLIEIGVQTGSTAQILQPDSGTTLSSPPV
N-terminal GST tagged recombinant human RET cytoplasmic domain (aa 658-end), wild type RET kinase, sequence (P07949 658-1114): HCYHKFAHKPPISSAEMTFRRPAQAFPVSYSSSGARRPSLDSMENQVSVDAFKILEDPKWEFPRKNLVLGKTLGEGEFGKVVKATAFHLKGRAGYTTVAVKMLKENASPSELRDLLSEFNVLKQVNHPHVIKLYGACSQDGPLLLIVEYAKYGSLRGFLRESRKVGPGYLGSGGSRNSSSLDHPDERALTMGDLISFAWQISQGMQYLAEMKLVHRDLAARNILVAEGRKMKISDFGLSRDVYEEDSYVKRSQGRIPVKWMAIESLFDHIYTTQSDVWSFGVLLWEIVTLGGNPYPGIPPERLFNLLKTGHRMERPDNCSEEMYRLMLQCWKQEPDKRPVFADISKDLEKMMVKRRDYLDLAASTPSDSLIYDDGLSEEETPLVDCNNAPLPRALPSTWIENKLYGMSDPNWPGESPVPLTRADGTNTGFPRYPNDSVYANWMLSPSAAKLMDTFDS
Kif5b-RET fusion protein in HEK-293 cells, sequence (P07949 29-1114 limits assumed): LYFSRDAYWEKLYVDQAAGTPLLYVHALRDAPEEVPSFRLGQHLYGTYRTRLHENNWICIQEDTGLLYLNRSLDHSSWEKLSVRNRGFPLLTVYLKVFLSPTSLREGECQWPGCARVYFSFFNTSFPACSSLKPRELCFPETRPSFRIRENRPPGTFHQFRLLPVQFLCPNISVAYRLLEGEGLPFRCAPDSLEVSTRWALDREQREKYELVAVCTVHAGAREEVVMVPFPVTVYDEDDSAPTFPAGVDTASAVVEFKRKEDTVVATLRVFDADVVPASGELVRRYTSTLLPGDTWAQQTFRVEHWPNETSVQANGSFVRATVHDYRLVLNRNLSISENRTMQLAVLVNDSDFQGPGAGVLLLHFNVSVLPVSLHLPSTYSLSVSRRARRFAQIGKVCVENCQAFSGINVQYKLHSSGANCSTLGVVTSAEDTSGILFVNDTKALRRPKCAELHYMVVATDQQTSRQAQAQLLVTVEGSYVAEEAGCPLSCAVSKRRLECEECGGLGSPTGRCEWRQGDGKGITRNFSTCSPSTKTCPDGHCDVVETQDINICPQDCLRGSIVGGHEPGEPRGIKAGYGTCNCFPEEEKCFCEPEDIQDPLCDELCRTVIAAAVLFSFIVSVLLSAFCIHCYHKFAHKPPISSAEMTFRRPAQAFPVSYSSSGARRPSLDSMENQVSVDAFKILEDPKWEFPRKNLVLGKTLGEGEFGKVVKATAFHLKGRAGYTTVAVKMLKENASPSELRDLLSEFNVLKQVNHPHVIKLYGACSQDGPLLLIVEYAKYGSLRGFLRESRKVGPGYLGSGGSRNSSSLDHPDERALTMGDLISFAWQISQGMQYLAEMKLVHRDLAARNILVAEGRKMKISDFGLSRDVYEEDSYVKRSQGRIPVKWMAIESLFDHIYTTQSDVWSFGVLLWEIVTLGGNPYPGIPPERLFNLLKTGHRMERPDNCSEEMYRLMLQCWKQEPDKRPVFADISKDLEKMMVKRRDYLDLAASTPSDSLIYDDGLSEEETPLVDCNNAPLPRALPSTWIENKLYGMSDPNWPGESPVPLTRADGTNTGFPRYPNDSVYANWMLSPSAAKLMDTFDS

As to `CC(C)[C@H](O)C(=O)N1CCN(c2ccc(-c3cc(-c4cnn(C)c4)cn4ncc(C#N)c34)cn2)CC1` [Example 54, (S)-4-(6-(4-(2-hydroxy-3-methylbutanoyl)piperazin-1-yl)pyridin-3-yl)-6-(1-methyl-1H-pyrazol-4-yl)pyrazolo[1,5-a]pyridine-3-carbonitrile], the IC50 in assay [1] was 1480 nM; in assay [2], 12.4 nM; in assay [3], 66.6 nM.
In the same order, the values of `C[C@@H](O)CC(=O)N1CCN(c2ccc(-c3cc(-c4cnn(C)c4)cn4ncc(C#N)c34)cn2)CC1` [Example 55, (R)-4-(6-(4-(3-hydroxybutanoyl)piperazin-1-yl)pyridin-3-yl)-6-(1-methyl-1H-pyrazol-4-yl)pyrazolo[1,5-a]pyridine-3-carbonitrile] are 923 nM, 10.4 nM and 54.9 nM.
For the compound `CC(C)C[C@H](O)C(=O)N1CCN(c2ccc(-c3cc(-c4cnn(C)c4)cn4ncc(C#N)c34)cn2)CC1` [Example 56, (S)-4-(6-(4-(2-hydroxy-4-methylpentanoyl)piperazin-1-yl)pyridin-3-yl)-6-(1-methyl-1H-pyrazol-4-yl)pyrazolo[1,5-a]pyridine-3-carbonitrile], the 50% inhibitory concentration (IC50) in assay [1] was 896 nM; in assay [2], 16 nM; in assay [3], 35.5 nM.
In the same order, the values of `C[C@H](O)CC(=O)N1CCN(c2ccc(-c3cc(-c4cnn(C)c4)cn4ncc(C#N)c34)cn2)CC1` [Example 57, (S)-4-(6-(4-(3-hydroxybutanoyl)piperazin-1-yl)pyridin-3-yl)-6-(1-methyl-1H-pyrazol-4-yl)pyrazolo[1,5-a]pyridine-3-carbonitrile] are 1040 nM, 12.7 nM and 48.6 nM.
In the same order, the values of `Cn1cc(-c2cc(-c3ccc(N4CCN(C(=O)C(C)(F)F)CC4)nc3)c3c(C#N)cnn3c2)cn1` [Example 59, 4-(6-(4-(2,2-difluoropropanoyl)piperazin-1-yl)pyridin-3-yl)-6-(1-methyl-1H-pyrazol-4-yl)pyrazolo[1,5-a]pyridine-3-carbonitrile] are 554 nM, 16.3 nM and 26.6 nM.
The like results for `Cn1cc(-c2cc(-c3ccc(N4CCN(C(=O)[C@H](O)C(F)(F)F)CC4)nc3)c3c(C#N)cnn3c2)cn1` [Example 61, (S)-6-(1-methyl-1H-pyrazol-4-yl)-4-(6-(4-(3,3,3-trifluoro-2-hydroxypropanoyl)piperazin-1-yl)pyridin-3-yl)pyrazolo[1,5-a]pyridine-3-carbonitrile] were, in that order, 148 nM, 5.5 nM and 5.5 nM.
On to `CCC(C)(O)CC(=O)N1CCN(c2ccc(-c3cc(-c4cnn(C)c4)cn4ncc(C#N)c34)cn2)CC1` (stereo not drawn) [Example 63, 4-(6-(4-(3-hydroxy-3-methylpentanoyl)piperazin-1-yl)pyridin-3-yl)-6-(1-methyl-1H-pyrazol-4-yl)pyrazolo[1,5-a]pyridine-3-carbonitrile], for which the values for the IC50 in assay [1], in assay [2] and in assay [3] were 527 nM, 11.5 nM and 8.2 nM, respectively.
In the same order, the values of `Cn1cc(-c2cc(-c3ccc(N4CCN(C(=O)CC(C)(C)C)CC4)nc3)c3c(C#N)cnn3c2)cn1` [Example 65, 4-(6-(4-(3,3-dimethylbutanoyl)piperazin-1-yl)pyridin-3-yl)-6-(1-methyl-1H-pyrazol-4-yl)pyrazolo[1,5-a]pyridine-3-carbonitrile] are 902 nM, 8.2 nM and 39.3 nM.
Take `CC(C)C(=O)N1CCN(c2ccc(-c3cc(-c4cnn(C)c4)cn4ncc(C#N)c34)cn2)CC1` [Example 66, 4-(6-(4-isobutyrylpiperazin-1-yl)pyridin-3-yl)-6-(1-methyl-1H-pyrazol-4-yl)pyrazolo[1,5-a]pyridine-3-carbonitrile]: the concentration for half-maximal inhibition (IC50) in assay [1] amounted to 911 nM; in assay [2], 14.1 nM; in assay [3] it was 25.4 nM.
The like results for `CCC(=O)N1CCN(c2ccc(-c3cc(-c4cnn(C)c4)cn4ncc(C#N)c34)cn2)CC1` [Example 67, 6-(1-methyl-1H-pyrazol-4-yl)-4-(6-(4-propionylpiperazin-1-yl)pyridin-3-yl)pyrazolo[1,5-a]pyridine-3-carbonitrile] were, in that order, 522 nM, 19.4 nM and 60.7 nM.
In the same order, the values of `CCCC(=O)N1CCN(c2ccc(-c3cc(-c4cnn(C)c4)cn4ncc(C#N)c34)cn2)CC1` [Example 70, 4-(6-(4-butyrylpiperazin-1-yl)pyridin-3-yl)-6-(1-methyl-1H-pyrazol-4-yl)pyrazolo[1,5-a]pyridine-3-carbonitrile] are 510 nM, 8.4 nM and 18.5 nM.
As to `CC(C)CC(=O)N1CCN(c2ccc(-c3cc(-c4cnn(C)c4)cn4ncc(C#N)c34)cn2)CC1` [Example 75, 6-(1-methyl-1H-pyrazol-4-yl)-4-(6-(4-(3-methylbutanoyl)piperazin-1-yl)pyridin-3-yl)pyrazolo[1,5-a]pyridine-3-carbonitrile], the IC50 in assay [1] is 392 nM; in assay [2], 6.3 nM; in assay [3], 7 nM.
The like results for `Cn1cc(-c2cc(-c3ccc(N4CCN(C(=O)CC(C)(C)O)CC4)nc3)c3c(C#N)cnn3c2)cn1` [Example 79, 4-(6-(4-(3-hydroxy-3-methylbutanoyl)piperazin-1-yl)pyridin-3-yl)-6-(1-methyl-1H-pyrazol-4-yl)pyrazolo[1,5-a]pyridine-3-carbonitrile] were, in that order, 1260 nM, 14.5 nM and 31.3 nM.
The like results for `CC(C)[C@@H](O)C(=O)N1CCN(c2ccc(-c3cc(-c4cnn(C)c4)cn4ncc(C#N)c34)cn2)CC1` [Example 85, (R)-4-(6-(4-(2-hydroxy-3-methylbutanoyl)piperazin-1-yl)pyridin-3-yl)-6-(1-methyl-1H-pyrazol-4-yl)pyrazolo[1,5-a]pyridine-3-carbonitrile] were, in that order, 771 nM, 7.6 nM and 6.5 nM.
The like results for `CC[C@H](CO)NC(=O)N1CCN(c2ccc(-c3cc(-c4cnn(C)c4)cn4ncc(C#N)c34)cn2)CC1` [Example 96, (R)-4-(5-(3-cyano-6-(1-methyl-1H-pyrazol-4-yl)pyrazolo[1,5-a]pyridin-4-yl)pyridin-2-yl)-N-(1-hydroxybutan-2-yl)piperazine-1-carboxamide] were, in that order, 1560 nM, 6.3 nM and 51.9 nM.
On to `CCN(CC)C(=O)N1CCN(c2ccc(-c3cc(-c4cnn(C)c4)cn4ncc(C#N)c34)cn2)CC1` [Example 98, 4-(5-(3-cyano-6-(1-methyl-1H-pyrazol-4-yl)pyrazolo[1,5-a]pyridin-4-yl)pyridin-2-yl)-N,N-diethylpiperazine-1-carboxamide], for which the 50% inhibitory concentration (IC50) stood at 1600 nM in assay [1], 3.6 nM in assay [2] and 13 nM in assay [3].
In the same order, the values of `CC(C)NC(=O)N1CCN(c2ccc(-c3cc(-c4cnn(C)c4)cn4ncc(C#N)c34)cn2)CC1` [Example 126, 4-(5-(3-cyano-6-(1-methyl-1H-pyrazol-4-yl)pyrazolo[1,5-a]pyridin-4-yl)pyridin-2-yl)-N-isopropylpiperazine-1-carboxamide] are 347 nM, 11.7 nM and 10.8 nM.
